Experimental data from patent US20050148627A1, “Benzopyran compounds for use in the treatment and prevention of inflammation related conditions” (priority 2003, published 2005).
Values joined by “and” are separate entries in the source; they are usually repeats but may differ in a detail not shown here. Equal values may be shown once.

Target: COX-1 (Homo sapiens, UniProt P23219)
Experiment: biochemical

Sequence of COX-1 (P23219 24-599): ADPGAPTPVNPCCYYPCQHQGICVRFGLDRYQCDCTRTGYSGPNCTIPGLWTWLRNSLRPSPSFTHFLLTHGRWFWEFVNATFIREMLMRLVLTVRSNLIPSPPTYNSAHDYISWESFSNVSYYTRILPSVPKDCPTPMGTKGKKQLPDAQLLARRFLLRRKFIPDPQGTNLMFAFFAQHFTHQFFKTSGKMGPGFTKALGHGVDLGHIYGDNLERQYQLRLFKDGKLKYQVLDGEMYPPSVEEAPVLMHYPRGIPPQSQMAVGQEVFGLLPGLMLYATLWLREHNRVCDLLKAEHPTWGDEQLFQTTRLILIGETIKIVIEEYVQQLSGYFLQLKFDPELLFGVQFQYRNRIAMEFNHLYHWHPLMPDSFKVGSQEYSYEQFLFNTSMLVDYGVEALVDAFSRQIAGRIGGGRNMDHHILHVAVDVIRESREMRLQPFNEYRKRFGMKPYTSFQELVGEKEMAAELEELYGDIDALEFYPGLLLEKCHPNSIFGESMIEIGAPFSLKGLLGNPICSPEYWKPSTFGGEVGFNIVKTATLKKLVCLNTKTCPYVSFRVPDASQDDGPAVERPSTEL

| SMILES | IC50 |
| --- | --- |
| O=C(O)C1=Cc2cc(Cl)c(I)c(Cl)c2OC1C(F)(F)F (stereo not drawn) [Example 22, 6,8-dichloro-7-iodo-2-(trifluoromethyl)-2H-chromene-3-carboxylic acid] | > 1 µM and 25.6 µM and 12.4 µM |
| CCC(CC)COc1ccc(Cl)c2c1OC(C(F)(F)F)C(C(=O)O)=C2 (stereo not drawn) [Example 23b, 5-chloro-8-(2-ethylbutoxy)-2-(trifluoromethyl)-2H-chromene-3-carboxylic acid] | 159 µM and > 100 µM |
| CCCCOc1cccc2c1OC(C(F)(F)F)C(C(=O)O)=C2 (stereo not drawn) [Example 25f, 8-butoxy-2-(trifluoromethyl)-2H-chromene-3-carboxylic acid] | > 100 µM |
| CCOc1cc(Br)cc2c1OC(C(F)(F)F)C(C(=O)O)=C2 (stereo not drawn) [Example 26, 6-bromo-8-ethoxy-2-(trifluoromethyl)-2H-chromene-3-carboxylic acid] | > 100 µM |
| CCOc1c(Cl)c(Br)c(Cl)c2c1OC(C(F)(F)F)C(C(=O)O)=C2 (stereo not drawn) [Example 27, 6-bromo-5,7-dichloro-8-ethoxy-2-(trifluoromethyl)-2H-chromene-3-carboxylic acid] | > 100 µM and 198 µM |
| CCCCOc1c(Cl)c(Cl)c(Cl)c2c1OC(C(F)(F)F)C(C(=O)O)=C2 (stereo not drawn) [Example 28b, 8-butoxy-5,6,7-trichloro-2-(trifluoromethyl)-2H-chromene-3-carboxylic acid] | 41.7 µM |
| COc1c(Cl)c(Cl)c(C)c2c1OC(C(F)(F)F)C(C(=O)O)=C2 (stereo not drawn) [Example 29, 6,7-dichloro-8-methoxy-5-methyl-2-(trifluoromethyl)-2H-chromene-3-carboxylic acid] | > 100 µM and 217 µM |
| COc1c(Cl)c(Cl)c(Br)c2c1OC(C(F)(F)F)C(C(=O)O)=C2 (stereo not drawn) [Example 30, 5-bromo-6,7-dichloro-8-methoxy-2-(trifluoromethyl)-2H-chromene-3-carboxylic acid] | 193 µM and > 100 µM |
| CCOc1cc(C)cc2c1OC(C(F)(F)F)C(C(=O)O)=C2 (stereo not drawn) [Example 31, 8-ethoxy-6-methyl-2-(trifluoromethyl)-2H-chromene-3-carboxylic acid] | > 500 µM |
| Cc1cc(C)c2c(c1Cl)C=C(C(=O)O)C(C(F)(F)F)O2 (stereo not drawn) [Example 33, 5-chloro-6,8-dimethyl-2-(trifluoromethyl)-2H-chromene-3-carboxylic acid] | 8.28 µM and 6.09 µM and 43.4 µM and 18.5 µM |
| CC(C)(C)c1cc(Cl)c2c(c1)C=C(C(=O)O)C(C(F)(F)F)O2 (stereo not drawn) [Example 35, 6-tert-butyl-8-chloro-2-(trifluoromethyl)-2H-chromene-3-carboxylic acid] | 2.87 µM |
| C=C(C)C#Cc1cc(Cl)cc2c1OC(C(F)(F)F)C(C(=O)O)=C2 (stereo not drawn) [Example 36, 6-chloro-8-(3-methylbut-3-en-1-ynyl)-2-(trifluoromethyl)-2H-chromene-3-carboxylic acid] | 78.5 µM and 52.3 µM |
| O=C(O)C1=Cc2cc(Br)c(Cc3ccccc3)cc2OC1C(F)(F)F (stereo not drawn) [Example 41, 7-benzyl-6-bromo-2-(trifluoromethyl)-2H-chromene-3-carboxylic acid] | 14.6 µM and 12.9 µM |
| CSc1cc(Cl)cc2c1OC(C(F)(F)F)C(C(=O)O)=C2 (stereo not drawn) [Example 44, 6-chloro-8-(methylthio)-2-(trifluoromethyl)-2H-chromene-3-carboxylic acid] | 0.185 µM and 0.12 µM and < 0.137 µM |
| Cc1cc(Br)c2c(c1)C=C(C(=O)O)C(C(F)(F)F)N2 (stereo not drawn) [Example 46, 8-Bromo-6-methyl-2-(trifluoromethyl)-1,2-dihydroquinoline-3-carboxylic acid] | > 100 µM |
| Cc1cc(Cl)cc2c1NC(C(F)(F)F)C(C(=O)O)=C2 (stereo not drawn) [Example 47, 6-chloro-8-methyl-2-(trifluoromethyl)-1,2-dihydroquinoline-3-carboxylic acid] | > 500 µM |
| O=C(O)C1=Cc2cc(-c3ccc(F)cc3)ccc2NC1C(F)(F)F (stereo not drawn) [Example 48, 6-(4-fluorophenyl)-2-(trifluoromethyl)-1,2-dihydroquinoline-3-carboxylic acid] | 42.7 µM |
| Cc1cc2c(c(C)c1Cl)C=C(C(=O)O)C(C(F)(F)F)O2 (stereo not drawn) [Example 100, 6-chloro-5,7-dimethyl-2-(trifluoromethyl)-2H-chromene-3-carboxylic acid] | 30.2 µM and 29.4 µM |

The next lines start with the values.

| IC50 | SMILES |
| --- | --- |
| 54.8 µM and 68.2 µM | O=C(O)C1=Cc2cc(OC(F)(F)F)cc(CCc3ccccc3)c2OC1C(F)(F)F (stereo not drawn) [Example 21o, 8-(2-phenylethyl)-6-(trifluoromethoxy)-2-(trifluoromethyl)-2H-chromene-3-carboxylic acid] |
| 39.2 µM | N#Cc1cc(OC(F)(F)F)cc2c1OC(C(F)(F)F)C(C(=O)O)=C2 (stereo not drawn) [Example 21p, 8-cyano-6-(trifluoromethoxy)-2-(trifluoromethyl)-2H-chromene-3-carboxylic acid] |
| 5.71 µM | CCC#Cc1cc(OC(F)(F)F)cc2c1OC(C(F)(F)F)C(C(=O)O)=C2 (stereo not drawn) [Example 21q, 8-but-1-ynyl-6-(trifluoromethoxy)-2-(trifluoromethyl)-2H-chromene-3-carboxylic acid] |
| 83.8 µM | CCCCc1cc(OC(F)(F)F)cc2c1OC(C(F)(F)F)C(C(=O)O)=C2 (stereo not drawn) [Example 21r, 8-butyl-6-(trifluoromethoxy)-2-(trifluoromethyl)-2H-chromene-3-carboxylic acid] |
| > 100 µM and 119 µM | C=CCc1cc(OC(F)(F)F)cc2c1OC(C(F)(F)F)C(C(=O)O)=C2 (stereo not drawn) [Example 21s, 8-allyl-6-(trifluoromethoxy)-2-(trifluoromethyl)-2H-chromene-3-carboxylic acid] |
| > 500 µM | CCCOc1ccc(Cl)c2c1OC(C(F)(F)F)C(C(=O)O)=C2 (stereo not drawn) [Example 23a, 5-chloro-8-propoxy-2-(trifluoromethyl)-2H-chromene-3-carboxylic acid] |
| 48.4 µM and 62.6 µM | O=C(O)C1=Cc2c(Cl)ccc(OCc3ccccc3)c2OC1C(F)(F)F (stereo not drawn) [Example 23c, 8-(benzyloxy)-5-chloro-2-(trifluoromethyl)-2H-chromene-3-carboxylic acid] |
| > 500 µM | COc1ccc(Cl)c2c1OC(C(F)(F)F)C(C(=O)O)=C2 (stereo not drawn) [Example 23d, 5-chloro-8-methoxy-2-(trifluoromethyl)-2H-chromene-3-carboxylic acid] |
| 0.471 µM and < 0.132 µM | COc1cc(Cl)c(Cl)c2c1OC(C(F)(F)F)C(C(=O)O)=C2 (stereo not drawn) [Example 23e, 5,6-dichloro-8-methoxy-2-(trifluoromethyl)-2H-chromene-3-carboxylic acid] |
| > 500 µM | COc1ccc(Br)c2c1OC(C(F)(F)F)C(C(=O)O)=C2 (stereo not drawn) [Example 24a, 5-bromo-8-methoxy-2-(trifluoromethyl)-2H-chromene-3-carboxylic acid] |
| > 500 µM | CCOc1ccc(Br)c2c1OC(C(F)(F)F)C(C(=O)O)=C2 (stereo not drawn) [Example 24b, 5-bromo-8-ethoxy-2-(trifluoromethyl)-2H-chromene-3-carboxylic acid] |
| > 500 µM | O=C(O)C1=Cc2cccc(Oc3ccc([N+](=O)[O-])cc3F)c2OC1C(F)(F)F (stereo not drawn) [Example 25a, 8-(2-fluoro-4-nitrophenoxy)-2-(trifluoromethyl)-2H-chromene-3-carboxylic acid] |
| < 0.686 µM and < 0.137 µM and 0.14 µM | Nc1ccc(Oc2cccc3c2OC(C(F)(F)F)C(C(=O)O)=C3)c(F)c1 (stereo not drawn) [Example 25b, 8-(4-amino-2-fluorophenoxy)-2-(trifluoromethyl)-2H-chromene-3-carboxylic acid] |
| > 100 µM | CCCOc1cccc2c1OC(C(F)(F)F)C(C(=O)O)=C2 (stereo not drawn) [Example 25e, 8-propoxy-2-(trifluoromethyl)-2H-chromene-3-carboxylic acid] |
| > 100 µM and 80.7 µM | O=C(O)C1=Cc2cccc(OCc3ccccc3)c2OC1C(F)(F)F (stereo not drawn) [Example 25g, 8-(benzyloxy)-2-(trifluoromethyl)-2H-chromene-3-carboxylic acid] |
| > 100 µM and 72.3 µM | O=C(O)C1=Cc2cccc(OCc3ccoc3)c2OC1C(F)(F)F (stereo not drawn) [Example 25h, 8-(3-furylmethoxy)-2-(trifluoromethyl)-2H-chromene-3-carboxylic acid] |
| 43.6 µM and 41.3 µM | CCCOc1c(Cl)c(Cl)c(Cl)c2c1OC(C(F)(F)F)C(C(=O)O)=C2 (stereo not drawn) [Example 28a, 5,6,7-trichloro-8-propoxy-2-(trifluoromethyl)-2H-chromene-3-carboxylic acid] |
| 69.4 µM | C=C(c1ccccc1)c1ccc2c(c1)OC(C(F)(F)F)C(C(=O)O)=C2 (stereo not drawn) [Example 37a, 7-(1-phenylvinyl)-2-(trifluoromethyl)-2H-chromene-3-carboxylic acid] |
| > 100 µM | CC(c1ccccc1)c1ccc2c(c1)OC(C(F)(F)F)C(C(=O)O)=C2 (stereo not drawn) [Example 37b, 7-(1-phenylethyl)-2-(trifluoromethyl)-2H-chromene-3-carboxylic acid] |
| < 0.137 µM | CC(C)CN(C)c1c(Cl)cc2c(c1Cl)OC(C(F)(F)F)C(C(=O)O)=C2 (stereo not drawn) [Example 38a, 6,8-dichloro-7-[isobutyl(methyl)amino]-2-(trifluoromethyl)-2H-chromene-3-carboxylic acid] |
| > 100 µM | CNc1c(Cl)cc2c(c1Cl)OC(C(F)(F)F)C(C(=O)O)=C2 (stereo not drawn) [Example 38b, 6,8-dichloro-7-(methylamino)-2-(trifluoromethyl)-2H-chromene-3-carboxylic acid] |
| < 0.137 µM | CC(C)CNc1c(Cl)cc2c(c1Cl)OC(C(F)(F)F)C(C(=O)O)=C2 (stereo not drawn) [Example 38c, 6,8-dichloro-7-(isobutylamino)-2-(trifluoromethyl)-2H-chromene-3-carboxylic acid] |
| 3.93 µM | NS(=O)(=O)c1ccc(C#Cc2cc(Cl)cc3c2OC(C(F)(F)F)C(C(=O)O)=C3)cc1 (stereo not drawn) [Example 39b, 8-{[4-(aminosulfonyl)phenyl]ethynyl}-6-chloro-2-(trifluoromethyl)-2H-chromene-3-carboxylic acid] |
| 28.7 µM and 25.2 µM and 14.7 µM | Cc1cc2c(cc1Cc1ccccc1)OC(C(F)(F)F)C(C(=O)O)=C2 (stereo not drawn) [Example 42a, 7-benzyl-6-methyl-2-(trifluoromethyl)-2H-chromene-3-carboxylic acid] |
| > 100 µM | CCc1cc2c(cc1Cc1ccccc1)OC(C(F)(F)F)C(C(=O)O)=C2 (stereo not drawn) [Example 42b, 7-benzyl-6-ethyl-2-(trifluoromethyl)-2H-chromene-3-carboxylic acid] |
| > 100 µM | CCCc1cc2c(cc1Cc1ccccc1)OC(C(F)(F)F)C(C(=O)O)=C2 (stereo not drawn) [Example 42c, 7-benzyl-6-propyl-2-(trifluoromethyl)-2H-chromene-3-carboxylic acid] |
| 58.3 µM | CCCCc1cc2c(cc1Cc1ccccc1)OC(C(F)(F)F)C(C(=O)O)=C2 (stereo not drawn) [Example 42d, 7-benzyl-6-butyl-2-(trifluoromethyl)-2H-chromene-3-carboxylic acid] |
